# In patent US20130072474A1, “TREATMENT OF DEMENTIA OF ALZHEIMER'S TYPE WITH MASITINIB” (AB SCIENCE, priority 2010, published 2013):
# Entries after “also recorded” stand apart in the source; their conditions may differ.
# Assays:
# [1] = tested on: patients suffering from mild to moderate dementia of Alzheimer's type; assay: Phase 2 study, ADAS-Cog (cognitive function); assay type: in vivo, human; parameters: key to ADAS-Cog absolute changes, Mean ± Std / ADAS-Cog absolute changes, Median: change in ADAS-Cog score (0-70 scale; higher = greater cognitive impairment); details: for ADAS-Cog No change, rate of patients / ADAS-Cog Response (Decrease >=4), rate of patients / ADAS-Cog Response without deterioration (in ADCS-ADL and CIBIC-plus), rate of patients / ADAS-Cog Worsening (Increase >=4), rate of patients / ADAS-Cog absolute changes, Mean ± Std / ADAS-Cog absolute changes, Median: ITT population
# From the text: (§1) A multicenter, randomized, double-blind, placebo-controlled, parallel-group phase 2 study evaluating the activity of masitinib given orally for 24 weeks has been performed in patients suffering from mild to moderate dementia of Alzheimer's type (protocol period completed, extension ongoing).
# (§2) Patients: Patients enrolled in this study had dementia of Alzheimer's type (according to DSM IV criteria), probable Alzheimer's disease according to NINCDS-ADRDA criteria, MMSE≧12 and ≦26, and CDR of 1 or 2. […] Exclusion criteria included inadequate organ function (defined via blood test levels), dementia due to any other causes, uncontrolled depression, psychosis, delusions or delirium.
# (§3) Treatment: In addition to a stable dose of acetylcholinesterase inhibitors and/or memantine, patients received masitinib or placebo, supplied as 100 and 200 mg tablets, per os for 24 weeks. Patients received masitinib or placebo initially at a daily total dose of 3 mg/kg or 6 mg/kg, administered twice daily with meals. Dose could be increased or decreased by 1.5 mg/kg/day depending on efficacy and toxicity assessments. Five patients were allocated to each masitinib dose for every three placebo patients. Treatment with any registered or putative cognitive enhancer or disease modifier (other than donepezil, galantamine, rivastigmine or memantine), or any investigational therapies was not allowed.
# ADAS-Cog: Alzheimer's Disease Assessment Scale, a cognitive sub-scale which examines selected aspects of cognitive performance including elements of memory, orientation, attention, reasoning, language and praxis. The ADAS-Cog scoring range is from 0 to 70, with higher scores indicating greater cognitive impairment.
# (§4) Statistical analyses: Efficacy was analyzed in the intent-to-treat (ITT) (all randomized patients, according to group of randomization) and per protocol (PP) (all patients without a major protocol deviation) populations. […] Efficacy criteria were analyzed using descriptive statistics, numbers and rates for categorical and discontinuous variables, parametric and non-parametric distribution elements for continuous variables.
# (§5) Results are presented for the ITT population in the OC dataset (with LOCF for Centre #21 at Week 24).
# [2] = tested on: patients suffering from mild to moderate dementia of Alzheimer's type; assay: Phase 2 study, MMSE; assay type: in vivo, human; details: for MMSE score, absolute change relative to baseline, Mean ± Std / MMSE score, absolute change relative to baseline, Median: Observed Cases, ITT population
# From the text: as §1, §2, §3
# MMSE: assesses six items: orientation, learning, attention, word recall, language use and comprehension, and constructive praxis. A global score from 0 to 30 was computed, with higher scores indicating greater cognitive function (Folstein et al., 1975).
# as §4, §5
# [3] = tested on: patients suffering from mild to moderate dementia of Alzheimer's type; assay: Phase 2 study, safety (adverse events, NCI CTCAE v3.0); assay type: in vivo, human; details: for At least one AE, All, patients: regardless of causality
# From the text: as §1
# Patients: Patients enrolled in this study had dementia of Alzheimer's type (according to DSM IV criteria), probable Alzheimer's disease according to NINCDS-ADRDA criteria, MMSE≧12 and ≦26, and CDR of 1 or 2. Patients had been receiving a stable dose of acetylcholinesterase inhibitors for a minimum of 6 months and/or memantine for a minimum of 3 months. Exclusion criteria included inadequate organ function (defined via blood test levels), dementia due to any other causes, uncontrolled depression, psychosis, delusions or delirium.
# as §3
# Safety was monitored throughout the study, and graded according to the NCI CTCAE v3.0 in all patients receiving at least one dose of masitinib. Safety assessment was based upon the frequency and severity of adverse events (AE), regardless of causality.
# Safety was assessed in the safety population (all patients receiving at least one drug administration), with descriptive statistics.
# [4] = molecular target: Fyn tyrosine kinase (Homo sapiens, UniProt P06241); assay: Fyn tyrosine kinase inhibition (preclinical data); assay type: biochemical
# [5] = W 24 LOCF center 21, Observed Cases
# Fyn tyrosine kinase, sequence (P06241 whole entry): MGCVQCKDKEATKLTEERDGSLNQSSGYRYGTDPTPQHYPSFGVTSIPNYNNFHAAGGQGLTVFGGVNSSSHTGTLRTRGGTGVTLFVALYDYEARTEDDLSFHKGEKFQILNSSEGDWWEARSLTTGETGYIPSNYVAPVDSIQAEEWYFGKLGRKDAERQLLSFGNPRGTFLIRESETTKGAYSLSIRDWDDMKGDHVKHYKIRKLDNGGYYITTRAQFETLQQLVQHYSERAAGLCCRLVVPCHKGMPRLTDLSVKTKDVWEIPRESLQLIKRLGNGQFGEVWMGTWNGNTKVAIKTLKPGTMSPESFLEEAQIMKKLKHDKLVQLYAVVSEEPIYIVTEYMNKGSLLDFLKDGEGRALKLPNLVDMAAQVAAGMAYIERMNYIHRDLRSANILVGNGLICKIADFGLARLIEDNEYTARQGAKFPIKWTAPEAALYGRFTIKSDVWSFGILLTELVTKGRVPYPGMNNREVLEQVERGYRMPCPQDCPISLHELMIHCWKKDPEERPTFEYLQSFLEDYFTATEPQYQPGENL
compound,measurement,setting,value
"Cc1ccc(NC(=O)c2ccc(CN3CCN(C)CC3)cc2)cc1Nc1nc(-c2cccnc2)cs1 [masitinib, 4-(4-methylpiperazin-1-ylmethyl)-N-[4-methyl-3-(4-pyridin-3ylthiazol-2-ylamino)phenyl]benzamide]","ADAS-Cog No change, rate of patients","[1]; W 4, Observed Cases",17 (70.8%)
same,"ADAS-Cog Response (Decrease >=4), rate of patients","[1]; W 4, Observed Cases",3 (12.5%)
same,"ADAS-Cog Response without deterioration (in ADCS-ADL and CIBIC-plus), rate of patients","[1]; W 4, Observed Cases",2 (9.1%)
same,"ADAS-Cog Worsening (Increase >=4), rate of patients","[1]; W 4, Observed Cases",4 (16.7%)
same,"ADAS-Cog absolute changes, Mean ± Std","[1]; W 4, Observed Cases",−0.0 ± 6.1
same,"ADAS-Cog absolute changes, Median","[1]; W 4, Observed Cases",−1.5
same,"ADAS-Cog No change, rate of patients","[1]; W 8, Observed Cases",4 (44.4%)
same,"ADAS-Cog Response (Decrease >=4), rate of patients","[1]; W 8, Observed Cases",4 (44.4%)
same,"ADAS-Cog Response without deterioration (in ADCS-ADL and CIBIC-plus), rate of patients","[1]; W 8, Observed Cases",2 (25.0%)
same,"ADAS-Cog Worsening (Increase >=4), rate of patients","[1]; W 8, Observed Cases",1 (11.1%)
same,"ADAS-Cog absolute changes, Mean ± Std","[1]; W 8, Observed Cases",−0.8 ± 8.1
same,"ADAS-Cog absolute changes, Median","[1]; W 8, Observed Cases",−2.8
same,"ADAS-Cog No change, rate of patients","[1]; W 12, Observed Cases",9 (52.9%)
same,"ADAS-Cog Response (Decrease >=4), rate of patients","[1]; W 12, Observed Cases",7 (41.2%)
same,"ADAS-Cog Response without deterioration (in ADCS-ADL and CIBIC-plus), rate of patients","[1]; W 12, Observed Cases",25%
same,"ADAS-Cog Worsening (Increase >=4), rate of patients","[1]; W 12, Observed Cases",1 (5.9%)
same,"ADAS-Cog absolute changes, Mean ± Std","[1]; W 12, Observed Cases",−2.6 ± 3.6
same,"ADAS-Cog absolute changes, Median","[1]; W 12, Observed Cases",−2.4
same,"ADAS-Cog Response without deterioration (in ADCS-ADL and CIBIC-plus), rate of patients","[1]; W 12, Observed Cases, listed as AB1010",4 (25.0%)
same,"ADAS-Cog No change, rate of patients","[1]; W 24, Observed Cases",5 (55.6%)
same,"ADAS-Cog Response (Decrease >=4), rate of patients","[1]; W 24, Observed Cases",3 (33.3%)
same,"ADAS-Cog Response without deterioration (in ADCS-ADL and CIBIC-plus), rate of patients","[1]; W 24, Observed Cases",2 (25.0%)
same,"ADAS-Cog Worsening (Increase >=4), rate of patients","[1]; W 24, Observed Cases",1 (11.1%)
same,"ADAS-Cog absolute changes, Mean ± Std","[1]; W 24, Observed Cases",−0.7 ± 7.8
same,"ADAS-Cog absolute changes, Median","[1]; W 24, Observed Cases",−0.3
same,"ADAS-Cog No change, rate of patients",[1]; [5],9 (56.3%)
same,"ADAS-Cog Response (Decrease >=4), rate of patients",[1]; [5],38%
same,"ADAS-Cog Response without deterioration (in ADCS-ADL and CIBIC-plus), rate of patients",[1]; [5],5 (33.3%)
same,"ADAS-Cog Worsening (Increase >=4), rate of patients",[1]; [5],1 (6.3%)
same,"ADAS-Cog absolute changes, Mean ± Std",[1]; [5],−1.8 ± 6.1
same,"ADAS-Cog absolute changes, Median",[1]; [5],−2.5
same,"ADAS-Cog Response (Decrease >=4), rate of patients","[1]; W 24 LOCF center 21, observed cases, listed as AB1010",6 (37.5%)
same,"ADAS-Cog score, mean decrease (i.e. improvement)","[1]; Week 12, ITT",2.6±3.6 units
same,"ADAS-Cog score, mean decrease","[1]; week 24, ITT",0.7±7.8 units
same,MMSE scores in masitinib-treated patients over time,"[2]; 24 weeks, placebo-treated patients deteriorated (Week 12 p=0.047, Week 24 p=0.031)",remained stable over time
same,"MMSE score, absolute change relative to baseline, Mean ± Std",[2]; W 4,0.2 ± 2.0
same,"MMSE score, absolute change relative to baseline, Median",[2]; W 4,−0.5
same,"MMSE score, absolute change relative to baseline, Mean ± Std",[2]; W 8,−0.6 ± 2.8
same,"MMSE score, absolute change relative to baseline, Median",[2]; W 8,0.0
same,"MMSE score, absolute change relative to baseline, Mean ± Std",[2]; W 12,0.1 ± 2.5
same,"MMSE score, absolute change relative to baseline, Median",[2]; W 12,0.0
same,"MMSE score, absolute change relative to baseline, Mean ± Std",[2]; W 24,−0.4 ± 5.6
same,"MMSE score, absolute change relative to baseline, Median",[2]; W 24,1.0
same,"MMSE score, absolute change relative to baseline, Mean ± Std",[2]; W 24 LOCF center 21,−0.1 ± 4.3
same,"MMSE score, absolute change relative to baseline, Median",[2]; W 24 LOCF center 21,0.0
same,dose effect on frequency of overall and individual AEs,[3]; 3 versus 6 mg/kg/day arms,no dose effect in terms of toxicity
same,patients who experienced edema,[3]; 26 masitinib-treated patients,27%
same,patients who experienced nausea/vomiting,[3]; 26 masitinib-treated patients,27%
same,patients who experienced rash,[3]; 26 masitinib-treated patients,15%
same,patients with at least one AE considered related,[3]; 26 masitinib-treated patients,58%
same,patients with at least one related serious adverse event,[3]; 26 masitinib-treated patients,19%
same,patients with related AEs leading to treatment discontinuation,[3]; 26 masitinib-treated patients,35%
same,"Anemia, All, patients",[3]; N = 26,(50.0%)
same,"Anemia, Moderate, patients",[3]; N = 26,(7.7%)
same,"Anorexia, All, patients",[3]; N = 26,(15.4%)
same,"Anorexia, Moderate, patients",[3]; N = 26,(7.7%)
same,"Anorexia, Severe, patients",[3]; N = 26,(7.7%)
same,"Asthenia, All, patients",[3]; N = 26,(11.5%)
same,"Asthenia, Moderate, patients",[3]; N = 26,(3.8%)
same,"Asthenia, Severe, patients",[3]; N = 26,(3.8%)
same,"At least one AE, Moderate, patients",[3]; N = 26,(42.3%)
same,"At least one AE, Severe, patients",[3]; N = 26,15%
same,"Depression, All, patients",[3]; N = 26,(7.7%)
same,"Diarrhea, All, patients",[3]; N = 26,23%
same,"Diarrhea, Moderate, patients",[3]; N = 26,(11.5%)
same,"Eyelid edema, All, patients",[3]; N = 26,(15.4%)
same,"Eyelid edema, Moderate, patients",[3]; N = 26,(7.7%)
same,"Leukopenia, All, patients",[3]; N = 26,(26.9%)
same,"Leukopenia, Moderate, patients",[3]; N = 26,(3.8%)
same,"Nausea, All, patients",[3]; N = 26,(15.4%)
same,"Nausea, Moderate, patients",[3]; N = 26,(3.8%)
same,"Nausea, Severe, patients",[3]; N = 26,(3.8%)
same,"Neutropenia, All, patients",[3]; N = 26,(42.3%)
same,"Peripheral edema, All, patients",[3]; N = 26,(19.2%)
same,"Peripheral edema, Moderate, patients",[3]; N = 26,(11.5%)
same,"Thrombocytopenia, All, patients",[3]; N = 26,(15.4%)
same,"Vomiting, All, patients",[3]; N = 26,(11.5%)
same,"Vomiting, Moderate, patients",[3]; N = 26,(7.7%)
same,"Weight Decreased, All, patients",[3]; N = 26,(7.7%)
same,"Weight Decreased, Moderate, patients",[3]; N = 26,(7.7%)
same,"At least one AE, Severe, patients","[3]; N = 26, listed as Masitinib",(15.4%)
same,"Diarrhea, All, patients","[3]; N = 26, listed as Masitinib",(23.1%)
same,"At least one AE, All, patients",[3]; N = 26,65%
same,"At least one AE, All, patients","[3]; N = 26, listed as Masitinib",(65.4%)
same,patients in the masitinib arm who withdrew due to related AEs,"[3]; before completion of the 24-week treatment period, of 17 masitinib patients who withdrew",41%
same,patients with dose reductions due to AEs (all considered related),[3]; masitinib-treated patients,four
same,patients with severe transaminase elevation,[3]; masitinib-treated patients,One
same,deaths,[3]; phase 2 study,No deaths were reported; also recorded: No patients died
same,IC50,[4],165 nM
